The values below come from patent US8415351B2 (priority 2007, dated 2013).

Experiment [1] deals with T1, HCV polymerase 1A (Δ21 NS5B, H77) (Hepatitis C virus genotype 1a, UniProt P27958).
T1 construct: 20 to 50 nM Δ21 NS5B
The experiment can be described thus: biochemical. In short, it runs like this: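 Radiometric assay with Δ21 NS5B (H77): 20 μM CTP, 20 μM ATP, 1 μM ^3H-UTP, 5 nM template RNA, 2–4 h at room temperature. RNA precipitated with spermine, filter-captured and counted. IC50 from non-linear fit of retained cpm vs inhibitor concentration (tight-binding equation).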

In experiment [2] the target is T2, HCV polymerase 1B (Δ21 NS5B, BK) (Hepatitis C virus genotype 1b, UniProt P26663).
T2 construct: 20 to 50 nM Δ21 NS5B
T2 sequence (P26663 2420-2989, stated change not applied): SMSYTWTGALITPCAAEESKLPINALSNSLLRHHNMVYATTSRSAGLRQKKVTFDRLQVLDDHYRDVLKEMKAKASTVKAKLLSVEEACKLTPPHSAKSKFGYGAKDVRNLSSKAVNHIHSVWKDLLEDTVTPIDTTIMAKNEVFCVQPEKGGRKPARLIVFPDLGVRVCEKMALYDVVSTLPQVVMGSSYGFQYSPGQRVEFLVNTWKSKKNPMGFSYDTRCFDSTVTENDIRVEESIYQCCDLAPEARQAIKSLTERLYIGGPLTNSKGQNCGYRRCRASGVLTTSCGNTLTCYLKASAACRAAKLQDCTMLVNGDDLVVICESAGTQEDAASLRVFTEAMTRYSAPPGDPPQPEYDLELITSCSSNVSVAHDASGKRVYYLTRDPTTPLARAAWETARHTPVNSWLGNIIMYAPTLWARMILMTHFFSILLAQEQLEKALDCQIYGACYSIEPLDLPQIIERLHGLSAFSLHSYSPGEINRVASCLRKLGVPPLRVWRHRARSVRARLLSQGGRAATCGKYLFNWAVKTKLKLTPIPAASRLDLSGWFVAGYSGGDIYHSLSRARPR
As to the kind of experiment: biochemical. The procedure:
HCV Polymerase Inhibition Assay
Either two-fold serial dilutions (fractional inhibition assay) or a narrower range of dilutions spanning the IC50 of the inhibitor (tight binding assay) of the inhibitors were incubated with 20 mM Tris-Cl pH 7.4, 2 mM MnCl2, 1 mM dithiothreitol, 1 mM ethylene diamine tetraacetic acid (EDTA), 60 to 125 μM GTP and 20 to 50 nM Δ21 NS5B (HCV Strain 1B (BK, Genbank accession number M58335, or H77, Genbank accession number AF011751)) for 15 min at room temperature. The reaction was initiated by the addition of 20 μM CTP, 20 μM ATP, 1 μM ^3H-UTP (10 mCi/umol), 5 nM template RNA and 0.1 U/μl RNase inhibitor (RNasin, Promega), and allowed to proceed for 2 to 4 h at room temperature. Reaction volume was 50 μl. The reaction was terminated by the addition of 1 volume of 4 mM spermine in 10 mM Tris-Cl pH 8.0, 1 mM EDTA. After incubation for at least 15 min at room temperature, the precipitated RNA was captured by filtering through a GF/B filter (Millipore) in a 96 well format. The filter plate was washed three times with 200 μl each of 2 mM spermine, 10 mM Tris-Cl pH 8.0, 1 mM EDTA, and 2 times with ethanol. After air-drying, 30 μl of Microscint 20 scintillation cocktail (Packard) was added to each well, and the retained cpm were determined by scintillation counting. […] Retained cpm were plotted vs. inhibitor concentration and fit to equation 1 using non-linear regression (ref. 1) to obtain the IC50 values: Retained cpm=A[sqrt{(IC50+It−Et)^2+4*IC50*Et}−(IC50+It−Et)]
Ref. Morrison, J. F. and S. R. Stone. 1985. Approaches to the study and analysis of the inhibition of enzymes by slow- and tight-binding inhibitors. Comments Mol. Cell. Biophys. 2: 347-368.
The sequence of the template RNA used was: 5′-[…] […] […] […] […] […] […] […] […] […] […] […] […] […] […] […] […]-3′ (SEQ ID NO: 1)

Read-outs that look alike come from different tables or passages of the source.

T1 sequence (P27958 2421-2990, stated change not applied): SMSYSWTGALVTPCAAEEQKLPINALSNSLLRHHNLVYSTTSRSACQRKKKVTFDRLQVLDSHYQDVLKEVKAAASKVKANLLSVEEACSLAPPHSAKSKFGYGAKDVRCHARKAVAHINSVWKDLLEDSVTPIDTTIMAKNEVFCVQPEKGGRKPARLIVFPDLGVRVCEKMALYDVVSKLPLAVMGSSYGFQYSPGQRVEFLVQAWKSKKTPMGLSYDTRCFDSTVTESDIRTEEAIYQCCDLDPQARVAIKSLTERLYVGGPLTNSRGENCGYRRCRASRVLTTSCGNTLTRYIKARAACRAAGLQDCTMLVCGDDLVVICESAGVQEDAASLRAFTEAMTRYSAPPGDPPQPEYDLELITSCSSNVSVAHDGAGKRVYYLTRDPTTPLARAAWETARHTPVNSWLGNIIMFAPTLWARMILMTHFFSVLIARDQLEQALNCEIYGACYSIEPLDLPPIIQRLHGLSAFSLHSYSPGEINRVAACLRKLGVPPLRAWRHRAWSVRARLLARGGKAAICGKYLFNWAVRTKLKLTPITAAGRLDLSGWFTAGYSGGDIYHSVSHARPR

As a reminder, the IC50 is the midpoint of a concentration-inhibition curve. `COc1c(C(=O)Nc2ccc(N(C(=O)C(C)C)S(C)(=O)=O)cc2)cc(N2CCC(=O)NC2=O)cc1C(C)(C)C` [IA-L3-1.72, 3-tert-butyl-5-(2,4-dioxotetrahydropyrimidin-1(2H)-yl)-2-methoxy-N-(4-(N-(methylsulfonyl)isobutyramido)phenyl)benzamide]: the IC50 in experiment [1] (IC50 1a) and in experiment [2] was > 1 µM throughout.

As to `COC(=O)N(c1ccc(NC(=O)c2cc(N3CCC(=O)NC3=O)cc(C(C)(C)C)c2OC)cc1)S(C)(=O)=O` [IA-L3-1.73, Methyl 4-(3-tert-butyl-5-(2,4-dioxotetrahydropyrimidin-1(2H)-yl)-2-methoxybenzamido) phenyl(methylsulfonyl)carbamate], the IC50 in experiment [1] (IC50 1a) and in experiment [2] was > 1 µM each time.

Regarding `COc1c(-c2nc3cc(N(S(C)(=O)=O)S(C)(=O)=O)ccc3[nH]2)cc(N2CCC(=O)NC2=O)cc1C(C)(C)C` [IA-L0-2.10, N-(2-(3-tert-butyl-5-(2,4-dioxotetrahydropyrimidin-1(2H)-yl)-2-methoxyphenyl)-1H-benzo[d]imidazol-5-yl)-N-(methylsulfonyl)methanesulfonamide], the IC50 in experiment [1] (IC50 1a) and in experiment [2] was > 1 µM in each case.

Turning to `CC(C)(C)OC(=O)NC1CCN(Cc2cc(N3CCC(=O)NC3=O)cc(C(C)(C)C)c2O)CC1` [IA-L5-1-1.1, {1-[3-tert-butyl-5-(2,4-dioxo-tetrahydro-pyrimidin-1-yl)-2-hydroxy-benzyl]-piperidin-4-yl}-carbamic acid tert-butyl ester], the IC50 in experiment [1] (IC50 1a) and in experiment [2] was > 1 µM each time.

Take `COCCOC(=O)N(c1ccc(NC(=O)c2cc(N3CCC(=O)NC3=O)cc(C(C)(C)C)c2OC)cc1)S(C)(=O)=O` [IA-L3-1.77, 2-methoxyethyl 4-(3-tert-butyl-5-(2,4-dioxotetrahydropyrimidin-1(2H)-yl)-2-methoxybenzamido)phenyl(methylsulfonyl)carbamate]: the IC50 in experiment [1] (IC50 1a) and in experiment [2] was > 1 µM in each case.

As for `COc1c(NC(=O)c2ccc(CS(C)(=O)=O)cc2)cc(N2CCC(=O)NC2=O)cc1C(C)(C)C` [IA-L4-1.10, N-(3-tert-butyl-5-(2,4-dioxotetrahydropyrimidin-1(2H)-yl)-2-methoxyphenyl)-4-(methylsulfonylmethyl)benzamide], the IC50 in experiment [1] (IC50 1a) and in experiment [2] was > 1 µM throughout.

`CC(C)(C)c1cc(N2CCC(=O)NC2=O)cc(CN2CCCC(CNS(C)(=O)=O)C2)c1O` (centres unmarked) [IA-L5-1-1.2, N-{1-[3-tert-butyl-5-(2,4-dioxo-tetrahydro-pyrimidin-1-yl)-2-hydroxy-benzyl]-piperidin-3-ylmethyl}-methanesulfonamide]: the IC50 in experiment [1] (IC50 1a) and in experiment [2] was > 1 µM each time.

Regarding `COc1c(C(=O)Nc2ccc(N(COC(=O)C(C)(C)C)S(C)(=O)=O)cc2)cc(N2CCC(=O)N(COC(=O)C(C)(C)C)C2=O)cc1C(C)(C)C` [IA-L3-1.116, (3-(3-tert-butyl-4-methoxy-5-(4-(N-(pivaloyloxymethyl)methylsulfonamido)phenylcarbamoyl)phenyl)-2,6-dioxotetrahydropyrimidin-1(2H)-yl)methyl pivalate], the IC50 in experiment [1] (IC50 1a) and in experiment [2] was > 1 µM each time.

Consider `CCN(Cc1cc(N2CCC(=O)NC2=O)cc(C(C)(C)C)c1O)C1CCCCC1` [IA-L9-1.1, 1-(3-tert-butyl-5-((cyclohexyl(ethyl)amino)methyl)-4-hydroxyphenyl)dihydropyrimidine-2,4(1H,3H)-dione 2,2,2-trifluoroacetate], for which the IC50 in experiment [1] (IC50 1a) and in experiment [2] was > 1 µM each time.

Consider `CC(C)(C)c1cc(N2CCC(=O)NC2=O)cc(CN2CCC(NS(C)(=O)=O)C2)c1O` (centres unmarked) [IA-L5-1-1.11, N-{1-[3-tert-butyl-5-(2,4-dioxo-tetrahydro-pyrimidin-1-yl)-2-hydroxy-benzyl]-pyrrolidin-3-yl}-methanesulfonamide], for which the IC50 in experiment [1] (IC50 1a) and in experiment [2] was > 1 µM each time.

For `COc1c(C(=O)Nc2ccc(N(C(=O)OCC(C)C)S(C)(=O)=O)cc2)cc(N2CCC(=O)NC2=O)cc1C(C)(C)C` [IA-L3-1.76, Isobutyl 4-(3-tert-butyl-5-(2,4-dioxotetrahydropyrimidin-1(2H)-yl)-2-methoxybenzamido) phenyl(methylsulfonyl)carbamate], the IC50 in experiment [1] (IC50 1a) and in experiment [2] was > 1 µM each time.

Turning to `CC(C)(C)c1cc(N2CCC(=O)NC2=O)cc(CN2CCOCC2)c1O` [IA-L5-1-1.14, 1-(3-tert-butyl-4-hydroxy-5-(morpholinomethyl)phenyl)dihydropyrimidine-2,4(1H,3H)-dione 2,2,2-trifluoroacetate], the half-inhibitory concentration (IC50) in experiment [1] (IC50 1a) and in experiment [2] was > 1 µM throughout.

Consider `CCOC(=O)C1CCCN(Cc2cc(N3CCC(=O)NC3=O)cc(C(C)(C)C)c2O)C1` (centres unmarked) [IA-L5-1-1.3, 1-[3-tert-butyl-5-(2,4-dioxo-tetrahydro-pyrimidin-1-yl)-2-hydroxy-benzyl]-piperidine-3-carboxylic acid ethyl ester], for which the IC50 in experiment [1] (IC50 1a) and in experiment [2] was > 1 µM each time.

In the case of `CCOC(=O)CC(=O)c1ccc(NC(=O)c2cc(N3CCC(=O)NC3=O)cc(C(C)(C)C)c2OC)cc1` [IA-L3-1.43, ethyl 3-(4-(3-tert-butyl-5-(2,4-dioxotetrahydropyrimidin-1(2H)-yl)-2-methoxybenzamido)phenyl)-3-oxopropanoate], the IC50 in experiment [1] (IC50 1a) and in experiment [2] was > 1 µM each time.

As for `COc1c(-c2ncc(-c3cccc([N+](=O)[O-])c3)o2)cc(N2CCC(=O)NC2=O)cc1C(C)(C)C` [IA-L0-1.10, 1-(3-tert-butyl-4-methoxy-5-(5-(3-nitrophenyl)oxazol-2-yl)phenyl)dihydropyrimidine-2,4(1H,3H)-dione], the IC50 in experiment [1] (IC50 1a) and in experiment [2] was > 1 µM in each case.

Consider `CC1CCCN(Cc2cc(N3CCC(=O)NC3=O)cc(C(C)(C)C)c2O)C1` (centres unmarked) [IA-L5-1-1.4, 1-[3-tert-butyl-4-hydroxy-5-(3-methyl-piperidin-1-ylmethyl)-phenyl]-dihydro-pyrimidine-2,4-dione; compound with trifluoroacetic acid], for which the IC50 in experiment [1] (IC50 1a) and in experiment [2] was > 1 µM in each case.

For `COc1c(C(=O)Nc2ccccc2S(C)(=O)=O)cc(N2CCC(=O)NC2=O)cc1C(C)(C)C` [IA-L3-1.79, 3-tert-butyl-5-(2,4-dioxotetrahydropyrimidin-1(2H)-yl)-2-methoxy-N-(2-(methylsulfonyl)phenyl)benzamide], the IC50 in experiment [1] (IC50 1a) and in experiment [2] was > 1 µM in each case.

In the case of `CC(C)(C)OC(=O)NC1CCN(Cc2cc(N3CCC(=O)NC3=O)cc(C(C)(C)C)c2O)C1` (centres unmarked) [IA-L5-1-1.12, {1-[3-tert-butyl-5-(2,4-dioxo-tetrahydro-pyrimidin-1-yl)-2-hydroxy-benzyl]-pyrrolidin-3-yl}-carbamic acid tert-butyl ester], the IC50 in experiment [1] (IC50 1a) and in experiment [2] was > 1 µM in each case.

Take `CC(C)(C)c1cc(N2CCC(=O)NC2=O)cc(NC(=O)c2ccc([N+](=O)[O-])cc2)c1O` [IA-L4-1.5, N-(3-tert-butyl-5-(2,4-dioxotetrahydropyrimidin-1(2H)-yl)-2-hydroxyphenyl)-4-nitro benzamide]: the IC50 was > 1 µM in experiment [1] (read-out: IC50 1a) and > 1 µM in experiment [2] (HCV polymerase 1b, read-out: IC50 1b).

Regarding `COc1c(C(=O)Nc2ccccc2S(N)(=O)=O)cc(N2CCC(=O)NC2=O)cc1C(C)(C)C` [IA-L3-1.80, 3-tert-butyl-5-(2,4-dioxotetrahydropyrimidin-1(2H)-yl)-2-methoxy-N-(2-sulfamoylphenyl)benzamide], the IC50 in experiment [1] (IC50 1a) and in experiment [2] was > 1 µM each time.

As for `C=CCN(c1ccc(NC(=O)c2cc(N3CCC(=O)NC3=O)cc(C(C)(C)C)c2OC)cc1)S(C)(=O)=O` [IA-L3-1.108, N-(4-(N-allylmethylsulfonamido)phenyl)-3-tert-butyl-5-(2,4-dioxotetrahydropyrimidin-1(2H)-yl)-2-methoxybenzamide], the IC50 in experiment [1] (IC50 1a) and in experiment [2] was > 1 µM each time.

For the compound `CC(C)(C)c1cc(N2CCC(=O)NC2=O)cc(CNc2ccc(NS(C)(=O)=O)cc2)c1O` [IA-L9-1.3, N-(4-(3-tert-butyl-5-(2,4-dioxotetrahydropyrimidin-1(2H)-yl)-2-hydroxybenzylamino)phenyl)methanesulfonamide], the IC50 in experiment [1] (IC50 1a) and in experiment [2] was > 1 µM in each case.
